Data reported in ChEMBL document CHEMBL1147390, “The structure of palominol by interpretation of two-dimensional NMR shift correlation experiments: isolation and structure determination of isopalominol” (J Nat Prod, 1993).
≈ marks a conversion by molar mass, not a printed value. Calls of active or inactive are those of the source. No cut-off for these calls is given here.

Experiments:
Escherichia coli [1] = assay: Antimicrobial activity against Escherichia coli at 1 ug/disk; assay type: functional, organism-based
Escherichia coli [2] = assay: Antimicrobial activity against Escherichia coli at 5 ug/disk; assay type: functional, organism-based
Staphylococcus aureus [3] = assay: Antimicrobial activity against Staphylococcus aureus at 5 ug/disk; assay type: functional, organism-based
Staphylococcus aureus [4] = assay: Antimicrobial activity against Staphylococcus aureus at 10 ug/disk; assay type: functional, organism-based
Escherichia coli [5] = assay: Antimicrobial activity against Escherichia coli at 10 ug/disk; assay type: functional, organism-based
Staphylococcus aureus [6] = assay: Antimicrobial activity against Staphylococcus aureus at 1 ug/disk; assay type: functional, organism-based
HCT-116 = assay: Cytotoxicity against human HCT116 cells; assay type: functional, cell-based

Row | SMILES | Activity (Escherichia coli [1]) | Activity (Escherichia coli [2]) | Activity (Staphylococcus aureus [3]) | Activity (Staphylococcus aureus [4]) | Activity (Escherichia coli [5]) | Activity (Staphylococcus aureus [6]) | IC50 (HCT-116)
1 | CC(C)=C1C(=O)C[C@@]2(C)C/C=C(\C)CC/C=C(\C)CC[C@H]12 [DOLABELLANE] | inactive | inactive | inactive | inactive | inactive | inactive | 10 mg/L (≈ 34.9 µM)
2 | CC(C)=C1[C@H]2CC/C(C)=C/CC/C(C)=C/C[C@]2(C)C[C@@H]1O (relative stereo) | inactive | inactive | inactive | inactive | inactive | inactive | 9 mg/L (≈ 31.2 µM)
3 | CC(C)=C1[C@H](O)C[C@@]2(C)C/C=C(\C)CC/C=C(\C)CC[C@H]12 (relative stereo) [ISOPALOMINOL] | inactive | inactive | inactive | inactive | inactive | inactive | 30 mg/L (≈ 104 µM)
4 | C/C1=C\C[C@]2(C)CC=C(C(C)(C)O)[C@H]2CC/C(C)=C/CC1 [PALOMINOL] | inactive | inactive | inactive | inactive | inactive | inactive | 10 mg/L (≈ 34.7 µM)
